# In patent US6420397B1, “Heteroaryl protease inhibitors and diagnostic imaging agents” (3-Dimensional Pharmaceuticals, Inc., priority 1999, dated 2002):
# What was measured:
# [1] = target: T1, Human α-thrombin (Homo sapiens, UniProt P00734); test: In vitro inhibition of purified enzymes: thrombin Ki determination (p-nitroanilide substrate hydrolysis); assay type: biochemical; conditions: substrate N-succinyl-Ala-Ala-Pro-Arg-p-nitroanilide, 37° C., pH 7.5
# T1 construct: Purified human α-thrombin was diluted into assay buffer; purchased Enzyme Research Laboratories (South Bend, Indiana)
# Description: (§1) Reagents: All buffer salts were obtained from Sigma Chemical Company (St. Louis, Mo.), and were of the highest purity available. The enzyme substrate N-benzoyl-Ile-Glu-Gly-Arg-p-nitroanilide hydrochloride (Sigma B2291) was obtained from Sigma. N-succinyl-Ala-Ala-Pro-Arg-p-nitroanilide (BACHEM L-1720) was obtained from BACHEM (King of Prussia, Pa.). Human α-thrombin and human factor Xa were obtained from Enzyme Research Laboratories (South Bend, Indiana).
# Ki Determinations: All assays are based on the ability of the test compound to inhibit the enzyme catalyzed hydrolysis of a peptide p-nitroanilide substrate. In a typical Ki determination, substrate is prepared in DMSO, and diluted into an assay buffer consisting of 50 mM HEPES, 200 mM NaCl, pH 7.5. The final concentrations for each of the substrates is listed below. In general, substrate concentrations are lower than the experimentally determined value for Km. Test compounds are prepared as a 1.0 mg/ml solution in DMSO. Dilutions are prepared in DMSO yielding 8 final concentrations encompassing a 200 fold concentration range. Enzyme solutions are prepared at the concentrations listed below in assay buffer.
# (§2) In a typical Ki determnination, into each well of a 96 well plate is pipetted […] of substrate solution, […] of test compound solution, and the plate allowed to thermally equilibrate at 37° C. in a Molecular Devices plate reader for >15 minutes. Reactions were initiated by the addition of a […] aliquot of enzyme and the absorbance increase at 405 nm is recorded for 15 minutes. Data corresponding to less than 10% of the total substrate hydrolysis were used in the calculations. The ratio of the velocity (rate of change in absorbance as a function of time) for a sample containing no test compound is divided by the velocity of a sample containing test compound, and is plotted as a function of test compound concentration. The data are fit to a linear regression, and the value of the slope of the line calculated. The inverse of the slope is the experimentally determined Ki value.
# Thrombin: Thrombin activity was assessed as the ability to hydrolyze the substrate N-succinyl-Ala-Ala-Pro-Arg-p-nitroanilide. Substrate solutions were prepared at a concentration of […] in assay buffer. Final DMSO concentration was 4.3%. Purified human α-thrombin was diluted into assay buffer to a concentration of 15 nM. Final reagent concentrations were: [thrombin]=0.5 nM, [substrate N-succinyl-Ala-Ala-Pro-Arg-p-nitroanilide]=32 mM.
# [2] = target: T2, human factor Xa (Homo sapiens, UniProt P00742); test: In vitro inhibition of purified enzymes: Factor Xa (p-nitroanilide substrate hydrolysis); assay type: biochemical; conditions: read-out: Factor Xa % inhibition @ conc.
# T2 construct: purchased Enzyme Research Laboratories (South Bend, Indiana)
# T2 sequence (P00742 235-488 limits assumed): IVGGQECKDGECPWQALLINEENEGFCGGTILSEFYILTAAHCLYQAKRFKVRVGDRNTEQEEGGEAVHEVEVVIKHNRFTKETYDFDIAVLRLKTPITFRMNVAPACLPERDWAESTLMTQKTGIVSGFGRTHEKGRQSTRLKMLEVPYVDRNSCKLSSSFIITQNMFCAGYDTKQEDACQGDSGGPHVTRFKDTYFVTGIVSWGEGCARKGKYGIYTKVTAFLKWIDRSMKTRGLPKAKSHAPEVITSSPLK
# T2 sequence (P00742 41-179 limits assumed): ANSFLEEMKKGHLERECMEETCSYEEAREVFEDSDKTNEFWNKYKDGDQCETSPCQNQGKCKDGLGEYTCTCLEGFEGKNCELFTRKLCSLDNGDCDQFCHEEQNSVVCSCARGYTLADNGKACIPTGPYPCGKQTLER
# Description: as §1
# Ki Determinations: All assays are based on the ability of the test compound to inhibit the enzyme catalyzed hydrolysis of a peptide p-nitroanilide substrate. […] In general, substrate concentrations are lower than the experimentally determined value for Km. […]
# as §2, with “Data corresponding to less than 10% of the total substrate hydrolysis were used in the calculations.” left out, “The data are fit to a linear regression, and the value of the slope of the line calculated. The inverse of the slope is the experimentally determined Ki value.” left out
SMILES,Ki [1],inhibition at 20 µM ([2]; @ 20 μM),inhibition at 13 µM ([2]; @ 13 μM)
"Cc1ccc(NS(=O)(=O)Cc2ccccc2I)c(=O)n1CC(=O)N[C@@H](CCONC(=N)N)C(=O)c1nccs1 [Example 1, N-{(1S)-1-[2-(Amidinoaminooxy)ethyl]-2-oxo-2-(1,3-thiazol-2-yl)ethyl}-2-[3-({[(2-iodophenyl)methyl]sulfonyl}amino)-6-methyl-2-oxohydropyridyl]acetamide]",0.014 µM,16%,–
"Cc1ccc(NS(=O)(=O)Cc2ccccc2I)c(=O)n1CC(=O)N[C@@H](CCONC(=N)N)C(=O)c1nc2ccccc2s1 [Example 2, N-{(1S)-1-[2-(Amidinoaminooxy)ethyl]-2-benzothiazol-2-yl-2-oxoethyl}-2-[3-({[(2-iodophenyl)methyl]sulfonyl}amino)-6-methyl-2-oxohydropyridyl]acetamide]",0.075 µM,–,51%
"Cc1ccc(NS(=O)(=O)c2cccc(I)c2)c(=O)n1CC(=O)N[C@@H](CCONC(=N)N)C(=O)c1nccs1 [Example 3, N-{(1S)-1-[2-(Amidinoaminooxy)ethyl]-2-oxo-2-(1,3-thiazol-2-yl)ethyl}-2-(3-{[(3-iodophettyl)sulfonyl]amino}-6-methyl-2-oxohydropyridyl)acetamide]",0.045 µM,–,–
"Cc1ccc(NS(=O)(=O)c2cccc(I)c2)c(=O)n1CC(=O)N[C@@H](CCONC(=N)N)C(=O)c1nc2ccccc2s1 [Example 4, N-{(1S)-1-[2-(Amidinoaminooxy)ethyl]-2-benzothiazol-2-yl-2-oxoethyl}-2-(3-{[(3-iodopheityl)sulfonyl]amino}-6-methyl-2-oxohydropyridyl)acetamide]",0.017 µM,–,–
